# According to US5246928A, “Thiadiazinones for stimulating cardiac activity” (Smith Kline & French Laboratories Limited, priority 1991, dated 1993):
# Legend:
# PDE (Peak III) = test: Inhibition of PDE (Peak III) from cat heart; conditions: read-out: IC50 × 10^-6, 1 μM cyclic AMP, pH 7.5, 37°
# Experimental: (§1) The enzyme was assayed by incubation at 37° for 4-30 min in 50 mM Tris, 5 mM MgCl2, pH 7.5 with [3-H] cyclic nucleotide (4×10^5 disintegrations min^-1) and [14-C] nucleotide 5' monophosphate (3×10^3 disintegrations min^-1). The assay was stopped by boiling, and the [3-H] […] The reaction mixture was diluted with 0.5 ml 100 mM HEPES (N-2-Hydroxyethylpiperazine-N'-2-ethanesulfonic acid), 100 mM NaCl, pH 8.5, and applied to the column. […] The recovery of product as judged by [14-C] recovery was approximately 80%. All assays were linear with time of incubation and concentration of enzyme over the range used in these experiments.
# [1] = tested on: left ventricular contractility; test: Cardiac Stimulant Activity - In vivo (Anaesthetised Cats): increase in left ventricular dp/dt max, i.v.; design: species or system cat; conditions: Felis catus, iv, read-out: ED50 (dose to increase left ventricular dp/dt max by 50%), pretreated with ganglion blocker and propranolol
# PDE (Peak I) = test: Substrate kinetics of PDE (Peak I) from cat heart; type: biochemical; conditions: without calmodulin
# Experimental: as §1
# [2] = tested on: left ventricular dp/dt max; test: Cardiac Stimulant Activity - In vivo (Conscious Dogs): left ventricular dp/dt max; design: species or system dog
# Experimental: Cardiac Stimulant Activity-In vivo (Conscious Dogs)
# Oral administration caused positive inotropic responses at doses of 0.05 mg/kg and below.
# [3] = tested on: histamine-induced bronchoconstriction; test: Bronchodilatation in vivo: histamine-induced bronchoconstriction in anaesthetised guinea-pigs; design: species or system guinea-pig (Dunkin Hartley); conditions: guinea-pig, i.v.; in words
# Experimental: Male guinea-pigs of the Dunkin Hartley strain (530 g±6 g) were anaesthetised with Sagatal (pentobarbital sodium) (90 mg/kg i.p.). Airway resistance was measured using a modification of the classical Konzett-Rossler technique (Versuchsanordnung zu Untersuchungen an der Bronchialmuskulatur. Naunyn-Schmiedebergs Arch. Exp. Path. Pharmak., 195: pp 71-74, (1940)). A dose of histamine which gave approximately 150% increase in airway resistance was selected for i.v. administration. Bolus doses of the compound of Example 1 were administered (i.v.) one minute before the histamine challenge.
# The threshold dose for this compound was 1×10^-8 mol/kg.
# [4] = in words, in contrast to Example 1
SMILES,IC50 (PDE (Peak III)) [µM],ED50 [1] [µmol/kg],further results
"O=C1NCC(c2ccc(-n3ccc(=O)cc3)cc2)=NN1 [Example 6, 6-[4-(4-Oxo-1,4-dihydropyridin-1-yl)phenyl]-4,5-dihydro-1,2,4-triazin-3(2H)-one]",1.75,0.23,–
"O=c1ccn(-c2ccc(-c3ccc(=O)[nH]n3)cc2)cc1 [Example 3, 6-[4-(4-Oxo-1,4-dihydropyridin-1-yl)phenyl]-3(2H)-pyridazinone]",3.99,0.47,–
Nc1nc2c(ncn2[C@@H]2O[C@@H]3COP(=O)(O)O[C@H]3[C@H]2O)c(=O)[nH]1 [cyclic GMP],–,–,Km (PDE (Peak I)): 1.8 µM; Relative Vmax (PDE (Peak I)): 1.1
"O=C1CCC(c2ccc(-n3ccc(=O)cc3)cc2)=NN1 [Example 2, 6-[4-(4-Oxo-1,4-dihydropyridin-1-yl)phenyl]-4,5-dihydro-3(2H)-pyridazinone]",5.09,0.4,–
"O=C1CSC(c2ccc(-n3ccc(=O)cc3)cc2)=NN1 [Example 4, 2-[4-(4-Oxo-1,4-dihydropyridin-1-yl)phenyl]-4H,6H-1,3,4-thiadiazin-5-one]",1.59,0.06,–
"CC1NC(=O)NN=C1c1ccc(-n2ccc(=O)cc2)cc1 (stereo not shown) [Example 7, 6-[4-(4-Oxo-1,4-dihydropyridin-1-yl)phenyl]-5-methyl-4,5-dihydro-1,2,4-triazin-3(2H)-one]",0.54,0.11,–
"Nc1cc(-c2ccncc2)c[nH]c1=O [Amrinone, reference compound]",–,–,"activity in comparison with compound of Example 1 [2, 4]: less active; duration in comparison with compound of Example 1 [2, 4]: shorter duration"
"O=C1COC(c2ccc(-n3ccc(=O)cc3)cc2)=NN1 [Example 5, 2-[4-(4-Oxo-1,4-dihydropyridin-1-yl)phenyl]-4H,6H-1,3,4-oxadiazin-5-one]",4.33,0.22,–
"CC1CC(=O)NN=C1c1ccc(-n2ccc(=O)cc2)cc1 (stereo not shown) [Example 1, 5-Methyl-6-[4-(4-oxo-1,4-dihydropyridin-1-yl)phenyl]-4,5-dihydro-3(2H)-pyridazinone]",0.41,–,"effect on histamine-induced bronchoconstriction [3]: reduced the histamine-induced bronchoconstriction; changes in blood pressure or heart rate ([2]; conscious dogs): without changes in blood pressure or heart rate; duration of positive inotropic responses ([2]; conscious dogs, 3 hours = maximum duration of measurement): more than 3 hours; 'force-rate' selectivity ([2]; conscious dogs, in words): particularly beneficial"

# The next lines start with results.
IC50 (PDE (Peak III)) [µM],SMILES,ED50 [1] [µmol/kg],further results
6.6,"O=C1CC2CCc3cc(-n4ccc(=O)cc4)ccc3C2=NN1 (stereo not shown) [Example 13, 8-(4-Oxo-1,4-dihydropyridin-1-yl)-4,4a, 5,6-tetrahydrobenzo[h]cinnolin-3(2H)-one]",0.78,–
2.58,"C[C@H]1CC(=O)NN=C1c1ccc(-n2ccc(=O)cc2)cc1 [Example 17, (S)-5-Methyl-6-[4-(4-oxo-1,4-dihydropyridin-1-yl)phenyl]-4,5-dihydro-3(2H)-pyridazinone]",–,–
2.64,"O=c1ccn(-c2ccc(-c3c[nH]c(=O)cn3)cc2)cc1 [Example 11, 5-[4-(4-Oxo-1,4-dihydropyridin-1-yl)phenyl]-2(1H)-pyrazinone]",–,–
0.23,"C[C@@H]1CC(=O)NN=C1c1ccc(-n2ccc(=O)cc2)cc1 [Example 16, (R)-5-Methyl-6-[4-(4-oxo-1,4-dihydropyridin-1-yl)phenyl]-4,5-dihydro-3(2H)-pyridazinone]",–,–
2.26,"O=c1ccn(-c2ccc(-c3n[nH]c(=O)s3)cc2)cc1 [Example 14, 5-[4-(4-Oxo-1,4-dihydropyridin-1-yl)phenyl]-1,3,4-thiadiazol-2(3H)-one]",0.82,–
1.25,"O=C1NN=C2c3ccc(-n4ccc(=O)cc4)cc3CC2S1 (stereo not shown) [Example 9, 7-(4-Oxo-1,4-dihydropyridin-1-yl)-9,9a-dihydroindeno[1,2-e][1,3,4]thiadiazin-2(3H)-one]",0.05,–
1.32,"CC12Cc3cc(-n4ccc(=O)cc4)ccc3C1=NNC(=O)S2 (stereo not shown) [Example 8, 7-(4-Oxo-1,4-dihydropyridin-1-yl)-9a-methyl-9,9a-dihydroindeno[1,2-e][1,3,4]thiadiazin-2(3H)-one]",0.07,–
0.44,"CC1SC(=O)NN=C1c1ccc(-n2ccc(=O)cc2)cc1 (stereo not shown) [Example 10, 5-[4-(4-Oxo-1,4-dihydropyridin-1-yl)phenyl]-6-methyl-3H,6H-1,3,4-thiadiazin-2-one]",0.07,–
